Patent US10562848B2, “Inhibitors of TNF superfamily costimulatory interactions and methods for uses of the same” (UNIVERSITY OF MIAMI, priority 2015, dated 2020)
Where two headings read alike, the source gives them in different places.

Tests used:
[1] = test system: CD40L-induced AID activation in human B cells; test: Inhibition of CD40L-induced human B-cell function (AID activation, Ds-Red reporter, flow cytometry); type: cell-based; conditions: for IC50: Homo sapiens, B-cell; for inhibition of CD40L-induced human B-cell function, AID activation (in words): human B cells, flow cytometry
Protocol: Activities in blocking CD40L-induced effects were assessed in a human B cell functional assay that quantitates B-cell function by measuring AID activation via a downstream fluorescent marker using flow cytometry. Activation-induced cytidine deaminase (AID) is necessary for both class switch recombination (CSR) and somatic hypermutation (SHM) of Ig genes, which are important for the generation of high-affinity antibodies and robust humoral immune response (see Frasca et al., Methods Mol Biol 1343:107-114 (2015)). AID is encoded by the aicda gene that is exclusively expressed in B cells and is necessary for opening the DNA molecule in the switch (S) regions in order to allow CSR. […] To further validate the activity of the present compounds, an aicda-lentiviral construct containing the promoter and enhancer region of aicda fused to the reporter Ds-Red was generated and used to transfect human B cells isolated from healthy donors. In these cells, regulation of AID expression through CD40-CD40L signaling following incubation at different conditions were evaluated by Ds-Red level assessed via flow cytometry.
B cells were isolated using anti-CD19 Microbeads (Miltenyi Biotech) from PBMC collected from healthy donors, and they were purified using magnetic columns. These B cells were than transfected with an aicda-DsRed vector using a lentiviral protocol, 1.25×10^5 cells/mL of transfected B cells were stimulated with IL-4 at 0.2 μg/mL and CD40 ligand at 0.2 μg/mL in IMDM media with 10% FBS. In addition, various concentrations of candidate compounds diluted in the same media were added along with the described condition above. Also, 1 μg/ml of CpG was used as positive control for activation. After culture for 2 days at 37° C. and 5% CO2, B cells were collected, and AID activation level as represented by the level of Ds-Red expression was assessed by flow cytometry using BD LSRFortessa cell analyzer.
These are important results as they were obtained in freshly isolated human B cells, a model particularly relevant for autoimmune diseases, and they assess effects on function not just proliferation or viability.

[2] = test system: CD40L-induced NF-κB activation in CD40 sensor cells (HEK Blue); test: Inhibition of CD40L-induced NF-κB activation in CD40 sensor cells (HEK-Blue); type: cell-based, human; conditions: for IC50: Homo sapiens, CD40L 20 ng/mL, 18 h
From the text: Activities of the compounds of the disclosure were confirmed in cell-based assays. As a first example, TNF-R1 and CD40 expressing sensor cells (HEK-Blue; InvivoGen, San Diego, Calif.) were used as described in the literature (see Song et al., Br J Pharmacol 171:4955-4969 (2014) and Cechin et al., Steroids 85:36-43 (2014)).
Cells were maintained in DMEM at 80% confluence for each experiment. Cells were trypsinized and re-suspended in the same medium with 1% FBS and seeded on 96-well microtiter plates at a density of 1×10^5 cells/well in the absence and presence of various concentrations of compounds diluted in the same media. For ligand mediated stimulation, final concentrations of recombinant human TNFα (2 ng/mL) and CD40L (20 ng/mL) were maintained in the wells for this purpose. After 18-hour incubation at 37° C., 20 μL supernatant of each well were taken and added to another 96-well microtiter plate containing 180 μL/well of QUANTI-Blue (InvivoGen, CA). The level of SEAP was determined after 30-minute incubation at 37° C. by reading at 625 nm using a spectrophotometer. […] Data are average±SD (normalized to CD40L-activated cells alone) for n=4 independent experiments with duplicates for each condition.

[3] = test system: Balb/c skin grafts in C57BL/6 mice; test: Skin allograft survival model; type: in vivo, mouse; conditions: CTLA4-Ig plus 21045 30 mg/kg daily s.c. in 20% HPβCD
From the text: Full-thickness ear skins from donor mice (Balb/c, Jackson Laboratory; Bar Harbor, Me.) were transplanted onto the dorsal thorax of recipient mice (C57BL/6, Jackson Laboratory) by placing them on ˜1 cm diameter graft beds and securing with bandages.

[4] = 48 h, read-out: IC50, inhibition of CD40L-induced AID activation

Compound	IC50 [1, 4] [µM]	IC50 ([1]; read-out: IC50 B Cell) [µM]	inhibition of CD40L-induced human B-cell function, AID activation (in words) [1]	inhibition of CD40L-induced NF-κB activation (in words) [2]	IC50 [2] [µM]	mean survival time (MST) of skin grafts [3] [days]
O=C(Nc1ccc(-c2ccc(C(=O)Nc3cccc4cccc(S(=O)(=O)O)c34)cc2)cc1)c1ccc([N+](=O)[O-])cc1 [Compound 21041, 8-[(4′-[4-nitrobenzamido]biphenyl-4-yl-carbonyl)amino]naphthalene-1-sulfonic acid]	13.2	13.2	concentration-dependent inhibition	concentration-dependent inhibition	10	
COC(=O)c1ccc(C(=O)Nc2ccc(-c3ccc(C(=O)Nc4cccc5cccc(S(=O)(=O)O)c45)cc3)cc2)cc1 [Compound 21045]	4.5	4.5	concentration-dependent inhibition	concentration-dependent inhibition	17	15
O=C(Nc1ccc(-c2ccc(C(=O)Nc3ccc(C(=O)O)c4ccccc34)cc2)cc1)c1ccc([N+](=O)[O-])cc1 [Compound 25441]	15.9	15.9	concentration-dependent inhibition	concentration-dependent inhibition	9	
